Results: article PMC10881971, “Hepa-ToxMOA: a pathway-screening method for evaluating cellular stress and hepatic metabolic-dependent toxicity of natural products” (Scientific Reports, 2024)
Where a name gives a salt, the structure may show the parent alone. Read-outs that look alike come from different tables or passages of the source.

Columns and labels:
[1] = test system: AP1, P53, Nrf2, and NF-κB
CYP3A4 = settings: cited from earlier work
CYP3A5 = test system: CYP3A5; parameters: method as in doi:10.1016/j.ccr.2020.213600; settings: cited from earlier work
[2] = under metabolic activation (S9+, 1% rat liver S9), 24 h
[3] = without metabolic activation (S9-), 24 h
[4] = regardless of metabolic activation (S9- and S9+), 24 h

| Structure (SMILES) | sum of activity scores compared between metabolic activation and non-metabolic conditions [1] | Toxic (natural products exceeding Score 3, Venn diagram list Fig. 3c) [1] | Toxic (natural products exceeding Score 3, Venn diagram list Fig. 3c) ([1]; human) | also measured |
| --- | --- | --- | --- | --- |
| O=C(C[C@@H]1NCCC[C@H]1O)Cn1cnc2ccccc2c1=O [beta-dichroine, beta-febrifugine (beta-dichroine)] | did not show a response | – | – | – |
| COc1cc([C@@H]2c3cc4c(cc3[C@H](O)[C@H]3COC(=O)[C@H]23)OCO4)cc(OC)c1OC [Podophyllotoxin, reference compound] | consistently active regardless of metabolic activation | Common | – | GFP expression, AP1 cell line (AP1; [2]): did not respond; GFP expression, AP1 cell line (AP1; [3]): specifically induced GFP expression |
| C[C@]12CC[C@H](O)C[C@@]1(O)CC[C@@H]1[C@@H]2CC[C@]2(C)[C@@H](c3ccc(=O)oc3)CC[C@]12O [Telocinobufagin] | more active without metabolic activation | – | S9- only | – |
| C[C@@]1(C(=O)O)CC[C@]2(C)CC[C@]3(C)C4=CC(=O)c5c(cc(O)c(O)c5C=O)[C@]4(C)CC[C@@]3(C)[C@@H]2C1 [Demethylzeylasteral] | did not show a response | – | – | – |
| CC[C@@]1(O)C(=O)OCc2c1cc1n(c2=O)Cc2cc3c(OC)cccc3nc2-1 [9-Methoxycamptothecin] | – | – | – | GFP expression, NF-κB cell line (NF-κB; [4]): increased GFP expression |
| C[C@@H]1CC[C@@]2(OC1)O[C@H]1C[C@H]3[C@@H]4CC=C5C[C@@H](O)C[C@@H](O[C@@H]6O[C@H](C)[C@H](O)[C@H](O)[C@H]6O[C@@H]6O[C@@H](C)[C@H](O)[C@@H](O)[C@H]6O)[C@]5(C)[C@H]4CC[C@]3(C)[C@H]1[C@@H]2C [Ophiopogonin B] | did not show a response | – | – | – |
| COc1cc([C@@H]2c3cc4c(cc3[C@H](O)[C@H]3COC(=O)[C@@H]23)OCO4)cc(OC)c1OC [Picropodophyllotoxin] | – | – | – | GFP expression, AP1 cell line (AP1; [2]): did not respond; GFP expression, AP1 cell line (AP1; [3]): specifically induced GFP expression |
| CO[C@]1(CC[C@@H](C)CO[C@@H]2O[C@H](CO)[C@@H](O)[C@H](O)[C@H]2O)O[C@H]2C[C@H]3[C@@H]4CC=C5C[C@@H](O[C@@H]6O[C@H](CO)[C@@H](O[C@@H]7O[C@@H](C)[C@H](O)[C@@H](O)[C@H]7O)[C@H](O)[C@H]6O[C@@H]6O[C@@H](C)[C@H](O)[C@@H](O)[C@H]6O)CC[C@]5(C)[C@H]4CC[C@]3(C)[C@H]2[C@@H]1C [Methyl protodioscin] | – | – | – | GFP intensity, AP1 cell line (AP1): increased |
| CC1=C(O)C(=O)C=C2C1=CC=C1[C@@]2(C)CC[C@@]2(C)[C@@H]3C[C@](C)(C(=O)O)CC[C@]3(C)CC[C@]12C [Celastrol] | more active under metabolic activation | – | S9+ only | – |
| CC[C@@]1(O)C(=O)OCc2c1cc1n(c2=O)Cc2cc3cc(O)ccc3nc2-1 [10-Hydroxycamptothecin] | consistently active regardless of metabolic activation | Common | – | GFP intensity, AP1 cell line (AP1; [4]): increased |
| C[C@]12CC[C@H](O)C[C@H]1CC[C@@H]1[C@@H]2CC[C@]2(C)[C@@H](c3ccc(=O)oc3)CC[C@]12O [Bufalin] | more active under metabolic activation | – | S9+ only | GFP expression, AP1 cell line (AP1; [2]): did not respond; GFP expression, AP1 cell line (AP1; [3]): specifically induced GFP expression |
| C[C@@H]1O[C@@H](O[C@H]2[C@H](OC(=O)[C@]34CCC(C)(C)C[C@H]3C3=CC[C@@H]5[C@@]6(C)C[C@H](O)[C@H](O[C@@H]7O[C@H](CO)[C@@H](O)[C@H](O)[C@H]7O)C(CO)(CO)[C@@H]6CC[C@@]5(C)[C@]3(C)C[C@H]4O)OC[C@H](O)[C@@H]2O)[C@H](O)[C@H](O)[C@H]1O[C@@H]1OC[C@@H](O)[C@H](O[C@@H]2OC[C@](O)(CO)[C@H]2O)[C@H]1O [Platycodin D] | more active under metabolic activation | – | S9+ only | – |
| COc1c(O)cc2oc3cc(O)c(CC=C(C)C)c(O)c3c(=O)c2c1CC=C(C)C [alpha-Mangostin] | more active under metabolic activation | S9+ only | – | – |
| C[C@]12CC[C@H](O)C[C@H]1CC[C@@H]1[C@@H]2CC[C@]2(C)[C@@H](c3ccc(=O)oc3)C[C@H]3O[C@]132 [Bufogenin] | consistently active regardless of metabolic activation | Common | – | GFP expression, AP1 cell line (AP1; [2]): did not respond; GFP expression, AP1 cell line (AP1; [3]): specifically induced GFP expression; GFP expression, P53 cell line (P53): increased; active (increased GFP intensity) for all Hepa-ToxMOA cell lines (Fig. 3d) [1]: commonly active |
| C[C@@H]1O[C@@H](O[C@H]2[C@H](OC(=O)[C@]34CCC(C)(C)C[C@H]3C3=CC[C@@H]5[C@@]6(C)C[C@H](O)[C@H](O[C@@H]7O[C@H](CO)[C@@H](O)[C@H](O[C@@H]8O[C@H](CO)[C@@H](O)[C@H](O)[C@H]8O)[C@H]7O)C(CO)(CO)[C@@H]6CC[C@@]5(C)[C@]3(C)C[C@H]4O)OC[C@H](O)[C@@H]2O)[C@H](O)[C@H](O)[C@H]1O[C@@H]1OC[C@@H](O)[C@H](O[C@@H]2OC[C@](O)(CO)[C@H]2O)[C@H]1O [Platycodin D2] | more active without metabolic activation | – | S9- only | – |
| CC[C@]1(O)C[C@@H]2CN(CCc3c([nH]c4ccccc34)[C@@](C(=O)OC)(c3cc4c(cc3OC)N(C)[C@H]3[C@@](O)(C(=O)OC)[C@H](OC(C)=O)[C@]5(CC)C=CCN6CC[C@]43[C@@H]65)C2)C1 [Vinblastine sulfate, reference compound] | more active under metabolic activation | – | S9+ only | – |
| C[C@]12CC[C@H](O)C[C@H]1CC[C@@H]1[C@@H]2[C@H](O)C[C@]2(C)[C@@H](c3ccc(=O)oc3)CC[C@]12O [Gamabufotalin] | more active without metabolic activation | – | S9- only | GFP expression, P53 cell line (P53): increased |
| CO[C@H]1C[C@H](O[C@H]2CC[C@]3(C)[C@H]4CC[C@]5(C)[C@@H](C6=CC(=O)OC6)CC[C@]5(O)[C@@H]4CC[C@]3(O)C2)O[C@H](C)[C@H]1O[C@@H]1O[C@H](CO)[C@@H](O)[C@H](O)[C@H]1O [Periplocoside] | – | – | – | GFP expression, AP1 cell line (AP1; [2]): did not respond; GFP expression, AP1 cell line (AP1; [3]): specifically induced GFP expression |
| C[C@]12CC[C@H](O)C[C@H]1CC[C@@H]1[C@@H]2[C@H](O)C(=O)[C@]2(C)[C@@H](c3ccc(=O)oc3)CC[C@]12O [Arenobufagin] | more active without metabolic activation | S9- only | – | GFP expression, AP1 cell line (AP1; [2]): did not respond; GFP expression, AP1 cell line (AP1; [3]): specifically induced GFP expression |
| CCc1c2c(nc3ccc(O)cc13)-c1cc3c(c(=O)n1C2)COC(=O)[C@]3(O)CC [7-Ethyl-10-Hydroxycamptothecin] | – | – | – | GFP intensity, AP1 cell line (AP1): increased |
| COc1cc2c3c(c1OC)-c1ccccc1C[C@H]3NCC2 [N-nornuciferine] | consistently active regardless of metabolic activation | Common | – | GFP expression, P53 cell line (P53): no change; increase of GFP expression, P53 cell line (P53): up to 1.5 fold; GFP expression, Nrf2 cell line (Nrf2): induced GFP expression; GFP expression, NF-κB cell line (NF-κB): increased GFP expression; active (increased GFP intensity) for all Hepa-ToxMOA cell lines (Fig. 3d) [1]: commonly active |
| CC(=O)O[C@H]1[C@H]2O[C@]23[C@@H]2CC[C@@H]4C[C@@H](O)CC[C@]4(C)[C@H]2CC[C@]3(C)[C@H]1c1ccc(=O)oc1 [Cinobufagin] | consistently active regardless of metabolic activation | Common | – | GFP expression, P53 cell line (P53): increased; active (increased GFP intensity) for all Hepa-ToxMOA cell lines (Fig. 3d) [1]: commonly active; substrate of CYP3A4 (CYP3A4): substrates; substrate of CYP3A5 (CYP3A5): substrates |
| CC(C)=CCc1c(O)cc2oc3cc(O)c(O)c(CCC(C)(C)O)c3c(=O)c2c1O [Garcinone C] | more active under metabolic activation | S9+ only | – | – |
| CC[C@]1(O)C[C@H]2CN(CCc3c([nH]c4ccccc34)[C@@](C(=O)OC)(c3cc4c(cc3OC)N(C=O)[C@H]3[C@@](O)(C(=O)OC)[C@H](OC(C)=O)[C@]5(CC)C=CCN6CC[C@]43[C@@H]65)C2)C1 [Vincristine, reference compound] | more active under metabolic activation | – | S9+ only | active (increased GFP intensity) for all Hepa-ToxMOA cell lines (Fig. 3d) [1]: commonly active |
| CC(=O)O[C@H]1[C@H]2O[C@]23[C@@H]2CC[C@]4(O)C[C@@H](O)CC[C@]4(C)[C@H]2CC[C@]3(C)[C@H]1c1ccc(=O)oc1 [Cinobufotalin] | more active without metabolic activation | – | S9- only | – |
